Experimental data from patent US8815865B2, “Substituted 4-hydroxypyrimidine-5-carboxamides” (Merck Sharp & Dohme Corp., priority 2009, dated 2014).

Columns and labels:
[1] = Pharmacokinetics after intravenous dosing in dogs (plasma concentrations by LC-MS/MS); type: in vivo, dogs (beagles); conditions: dog (beagle), 0.5 mg/kg intravenously
Experimental: The pharmacokinetics of Example 1 (E-1) was evaluated, and compared to that of Example 163 and Example 190 both disclosed in International PCT Application, No. PCT/US09/036,501, filed Mar. 9, 2009. Compounds were formulated in a 1:1 solution (by volume) of PEG200: water and dosed at 0.5 mg/kg of body weight. The formulation was dosed intravenously in 2 dogs (beagles), and blood was drawn at the following time points (hours) 0.08, 0.25, 0.5, 1, 2, 4, 6, 8, 24. The plasma concentrations shown in the table below were determined by protein precipitation followed by liquid chromatography—tandem mass spectrometry analysis.

PHD2 = biological target: T1, PHD2 (Homo sapiens, UniProt Q9GZT9); assay: PHD2 / HIF-1α peptide time resolved fluorescence inhibition assay; type: biochemical
T1 construct: FLAG-tagged full length PHD2 expressed in and purified from baculovirus-infected Sf9 cells; FLAG; made in house; host or cells: baculovirus-infected Sf9 cells
T1 sequence (Q9GZT9 whole entry): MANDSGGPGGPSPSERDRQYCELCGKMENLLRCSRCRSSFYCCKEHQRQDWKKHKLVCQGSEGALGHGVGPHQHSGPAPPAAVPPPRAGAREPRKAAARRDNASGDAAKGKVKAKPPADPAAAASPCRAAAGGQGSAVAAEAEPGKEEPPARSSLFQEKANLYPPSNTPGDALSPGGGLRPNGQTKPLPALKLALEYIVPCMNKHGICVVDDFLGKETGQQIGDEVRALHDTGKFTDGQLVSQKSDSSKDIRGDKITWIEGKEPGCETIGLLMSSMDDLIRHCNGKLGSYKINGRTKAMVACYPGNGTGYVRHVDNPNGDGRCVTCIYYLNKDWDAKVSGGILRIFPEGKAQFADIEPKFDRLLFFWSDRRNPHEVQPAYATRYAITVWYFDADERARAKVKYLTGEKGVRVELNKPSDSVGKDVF
Experimental: To each well of a 96-well plate was added 1 μL of test compound in DMSO and 20 μl of assay buffer (50 mM Tris pH 7.4/0.01% Tween-20/0.1 mg/ml bovine serum albumin/10 μM ferrous sulfate/1 mM sodium ascorbate/20 μg/ml catalase) containing 0.15 μg/ml FLAG-tagged full length PHD2 expressed in and purified from baculovirus-infected Sf9 cells. After a 30 min preincubation at room temperature, the enzymatic reactions were initiated by the addition of 4 μL of substrates (final concentrations of 0.2 μM 2-oxoglutarate and 0.5 μM HIF-1α peptide biotinyl-DLDLEMLAPYIPMDDDFQL). After 2 hr at room temperature, the reactions were terminated and signals were developed by the addition of a 25 μL quench/detection mix to a final concentration of 1 mM ortho-phenanthroline, 0.1 mM EDTA, 0.5 nM anti-(His)6 LANCE reagent (Perkin-Elmer Life Sciences), 100 nM AF647-labeled streptavidin (Invitrogen), and 2 μg/ml (His)6-VHL complex (S. Tan (2001) Protein Expr. Purif. 21, 224-234). The ratio of time resolved fluorescence signals at 665 and 620 nm was determined, and percent inhibition was calculated relative to an uninhibited control sample run in parallel.

COc1ccc(C(NC(=O)c2cnc(-c3cccnn3)nc2O)C2CCOCC2)cn1 (single isomer, unassigned) [Example 1, (R)- or (S)-4-Hydroxy-N-[(6-methoxypyridin-3-yl)(tetrahydro-2H-pyran-4-yl)methyl]-2-pyridazin-3-ylpyrimidine-5-carboxamide]
MRT [1]: 7.93 h | clearance [1]: 1.35 mL/min/kg | concentration at 0.08 h ([1]; PEG200:water 1:1, time 0.08 hours): 2230 nM | half-life ([1]; read-out: T ½ (converted)): 6.07 h | concentration at 0.25 h ([1]; time 0.25 hours): 2060 nM | concentration at 0.5 h ([1]; time 0.50 hours): 1960 nM | concentration at 1 h ([1]; time 1.00 hours): 1660 nM | concentration at 2 h ([1]; time 2.00 hours): 1390 nM | concentration at 4 h ([1]; time 4.00 hours): 1320 nM | concentration at 6 h ([1]; time 6.00 hours): 917 nM | concentration at 8 h ([1]; time 8.00 hours): 504 nM | concentration at 24 h ([1]; time 24.00 hours): 100 nM | IC50, inhibition of the interaction between PHD2 and a HIF peptide (PHD2; range printed in mixed units (nanomolar to micromolar)): 0.0001 to 10 µM | IC50 (PHD2; read-out: PHD2 binding activity expressed as IC50): ≤ 0.01 µM
